# Results reported in ChEMBL document CHEMBL1201862, “PubChem BioAssay data set” (2004).
# Active and inactive are the calls of the source. For most assays here, no stated cut-off is given here; in the data, actives have a measured EC50 and inactives only a lower limit.
# Columns and labels:
# Vero [1] = assay: mammalian cell viability reduction – secondary assay, cytotoxicity control for West Nile virus antiviral project, dose response (AID 1650); assay type: functional; settings: Chlorocebus sabaeus
# [2] = target: T1, Replicative DNA helicase DnaB (Mycobacterium tuberculosis, UniProt P9WMR3); assay: DnaB intein splicing inhibitors, dose response, biochemical, cell-free fluorescence (AID 449749); assay type: functional
# T1 sequence (P9WMR3 whole entry): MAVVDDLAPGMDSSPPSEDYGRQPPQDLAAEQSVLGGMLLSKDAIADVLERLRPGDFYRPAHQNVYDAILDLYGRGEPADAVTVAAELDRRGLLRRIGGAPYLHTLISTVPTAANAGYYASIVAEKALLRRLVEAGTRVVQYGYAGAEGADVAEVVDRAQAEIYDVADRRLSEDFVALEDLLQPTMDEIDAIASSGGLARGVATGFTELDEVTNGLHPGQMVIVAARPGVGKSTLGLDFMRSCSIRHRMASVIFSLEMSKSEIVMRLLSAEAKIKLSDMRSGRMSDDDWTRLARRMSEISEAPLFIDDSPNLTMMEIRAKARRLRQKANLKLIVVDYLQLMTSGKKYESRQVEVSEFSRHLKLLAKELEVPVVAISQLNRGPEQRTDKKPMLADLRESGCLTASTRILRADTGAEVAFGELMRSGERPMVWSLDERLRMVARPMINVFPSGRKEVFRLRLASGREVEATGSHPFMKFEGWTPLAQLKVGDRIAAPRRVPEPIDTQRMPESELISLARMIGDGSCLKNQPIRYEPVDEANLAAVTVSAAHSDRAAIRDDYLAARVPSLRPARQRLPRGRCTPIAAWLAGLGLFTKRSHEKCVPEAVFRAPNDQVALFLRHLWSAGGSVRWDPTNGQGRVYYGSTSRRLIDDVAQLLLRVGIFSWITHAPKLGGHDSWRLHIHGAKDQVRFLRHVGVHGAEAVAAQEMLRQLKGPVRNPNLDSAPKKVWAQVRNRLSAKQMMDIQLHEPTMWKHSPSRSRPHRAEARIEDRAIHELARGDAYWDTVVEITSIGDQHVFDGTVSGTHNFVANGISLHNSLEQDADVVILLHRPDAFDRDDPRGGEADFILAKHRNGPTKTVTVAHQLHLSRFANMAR
# Protein RecA = target: T2, Protein RecA (Mycobacterium tuberculosis, UniProt P9WHJ3); assay: Fluorescence Cell-Free Homogeneous Dose Retest to Identify Inhibitors of RecA-Intein Splicing Activity. [Related pubchem assays (depositor defined):AID2097, AID2223, AID489010, AID492950]; assay type: functional
# T2 sequence (P9WHJ3 whole entry): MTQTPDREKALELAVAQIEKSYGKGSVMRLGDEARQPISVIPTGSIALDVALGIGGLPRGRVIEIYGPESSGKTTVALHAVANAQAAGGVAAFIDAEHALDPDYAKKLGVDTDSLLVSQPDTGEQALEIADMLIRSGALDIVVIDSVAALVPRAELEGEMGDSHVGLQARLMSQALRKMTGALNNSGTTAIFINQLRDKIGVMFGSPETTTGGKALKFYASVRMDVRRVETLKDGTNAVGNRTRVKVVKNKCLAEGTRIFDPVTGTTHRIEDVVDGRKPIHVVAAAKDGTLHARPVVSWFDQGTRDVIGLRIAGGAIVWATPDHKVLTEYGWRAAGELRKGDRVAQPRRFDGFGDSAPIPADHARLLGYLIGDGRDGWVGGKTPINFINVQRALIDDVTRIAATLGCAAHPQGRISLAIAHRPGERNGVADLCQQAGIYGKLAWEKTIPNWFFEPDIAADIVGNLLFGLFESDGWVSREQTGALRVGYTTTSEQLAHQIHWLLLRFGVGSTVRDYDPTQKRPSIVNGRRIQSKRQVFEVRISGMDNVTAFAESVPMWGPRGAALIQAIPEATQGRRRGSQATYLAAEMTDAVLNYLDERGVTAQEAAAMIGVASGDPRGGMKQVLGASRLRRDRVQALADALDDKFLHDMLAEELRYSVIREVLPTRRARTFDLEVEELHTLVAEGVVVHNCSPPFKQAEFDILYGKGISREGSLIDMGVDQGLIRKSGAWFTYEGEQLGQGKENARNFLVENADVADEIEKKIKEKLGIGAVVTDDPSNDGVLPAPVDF
# [3] = target: T3, Heat shock factor protein 1 (Mus musculus, UniProt P38532); assay: enhancement of HSF1-driven luciferase signal – cell-based, NIH3T3, luminescence, dose retest, confirmation (AID 435004); assay type: functional;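 further: stress induced by proteasome inhibitor MG132 added 30 min after compound; luciferase reporter driven by HSF1 response element in NIH3T3 cells; actives raise luminescence as potentiators of the MG132 stress response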
# T3 sequence (P38532 whole entry): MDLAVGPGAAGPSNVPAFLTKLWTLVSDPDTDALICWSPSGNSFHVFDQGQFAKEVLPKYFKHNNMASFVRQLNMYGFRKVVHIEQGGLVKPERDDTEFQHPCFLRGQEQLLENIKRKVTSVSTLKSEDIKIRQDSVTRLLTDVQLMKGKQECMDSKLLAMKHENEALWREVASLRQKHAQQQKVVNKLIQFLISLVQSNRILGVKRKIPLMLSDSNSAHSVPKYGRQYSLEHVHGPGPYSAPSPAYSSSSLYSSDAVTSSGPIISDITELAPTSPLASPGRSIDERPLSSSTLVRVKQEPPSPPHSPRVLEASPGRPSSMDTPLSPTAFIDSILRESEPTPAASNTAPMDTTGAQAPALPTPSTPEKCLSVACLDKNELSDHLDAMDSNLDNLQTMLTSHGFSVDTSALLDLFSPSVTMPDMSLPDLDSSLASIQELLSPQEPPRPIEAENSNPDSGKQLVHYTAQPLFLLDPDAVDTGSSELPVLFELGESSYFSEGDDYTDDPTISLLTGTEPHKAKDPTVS
# [4] = Luminescence Cell-Based Dose Retest to Confirm Inhibitors of Cancer Stem Cells. [Related pubchem assays (depositor defined):AID2717, AID2721]; assay type: functional; settings: Homo sapiens
# [5] = fluconazole-exposed Candida albicans growth modulators – fluorescence, retest, confirmation (AID 2467); assay type: functional, cell-based
# [6] = mitochondrial function rescue without frataxin homolog – Friedreich's ataxia, plus single-dose screen, dose response (AID 1465); assay type: functional;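 further: yeast depleted of Yfh1p frataxin homolog grown on glycerol needing respiration; WST-1 tetrazolium dye reduction as measure of cellular dehydrogenase metabolic activity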
# Troponin, cardiac muscle = Troponin, cardiac muscle (Homo sapiens, UniProt P19429+P45379+P63316); assay: Fluorescence-based biochemical high throughput dose response assay for activators of the calcium sensitivity of cardiac Regulated Thin Filaments (RTF). [Related pubchem assays (depositor defined):AID493008, AID493018, AID504382, AID504383]; assay type: protein-complex assay
# [7] = NIH-3T3 fibroblast cytotoxicity, dose response, cytotoxicity control, cell-based, fluorescence, Alamar Blue, secondary assay (AID 2327); assay type: functional;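 further: NIH-3T3 mouse fibroblasts cultured with fluconazole at 8 µg/mL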
# NS3 = NS3 (Hepatitis C virus, UniProt A3EZJ3); assay: PubChem AID 2173; design: species or system Hepacivirus hominis
# Vero [8] = assay: viability of Vero cells under compound – cytotoxicity control for flavivirus capping enzyme inhibitors (AID 588742); assay type: functional; settings: Chlorocebus sabaeus
# [9] = target: Induced myeloid leukemia cell differentiation protein Mcl-1 (Homo sapiens, UniProt Q07820); assay type: functional
# Vero [10] = assay: cells; assay type: functional; settings: Chlorocebus sabaeus
# Vero [11] = assay: cells; assay type: functional, cell-based; settings: Chlorocebus sabaeus
# [12] = luciferase reporter signal suppression in cells – H4 neuroglioma cells, luminescence, dose response (AID 1990); assay type: functional, cell-based
# [13] = alpha-synuclein stem-loop luciferase translation blockers – H4 neuroglioma cells, luminescence, confirmation (AID 1988); assay type: functional, cell-based
# [14] = Luminescence Cell-Based Dose Response HTS to Identify Inhibitors of 5'UTR Stem-Loop Driven Prion Protein mRNA Translation in H4 Neuroglioblastoma Cells. [Related pubchem assays: 1827 (Project Summary), 1813 (Primary HTS)]; assay type: functional
# [15] = Luminescence Cell-Based Dose Confirmation HTS to Identify Activators of 5'UTR Stem-Loop Driven Alpha-Synuclein mRNA Translation in H4 Neuroglioblastoma Cells. [Related pubchem assays: 1829 (Project Summary), 1814 (Primary HTS)]; assay type: functional
# [16] = Luminescence Cell-Based Dose Response HTS to Identify Activators of Luciferase Translation or Activity in H4 […] Cells. [Related pubchem assays: 1829 (Project Summary), 1814 (Primary HTS)]; assay type: functional
# [17] = Luminescence Cell-Based Dose Response to Identify Activators of Luciferase Translation or Activity in H4-C Neuroglioblastoma Cells. [Related pubchem assays: 1829 (Project Summary), 1814 (Primary HTS)]; assay type: functional
# [18] = microbe, parasite or virus in culture; assay type: functional; settings: Mycobacterium tuberculosis
# [19] = Luminescence Cell-Based Dose Response to Identify Activators of 5'UTR Stem-Loop Driven Prion Protein mRNA Translation in H4-C Neuroglioblastoma Cells. [Related pubchem assays: 1829 (Project Summary), 1814 (Primary HTS)]; assay type: functional
# [20] = Luminescence Cell-Based Dose Confirmation to Identify Activators of 5'UTR Stem-Loop Driven Alpha-Synuclein mRNA Translation in H4 Neuroglioblastoma Cells. [Related pubchem assays: 1829 (Project Summary), 1814 (Primary HTS)]; assay type: functional
# H4 = assay: Luminescence Cell-Based Dose Response HTS to Identify Activators of 5'UTR Stem-Loop Driven Prion Protein mRNA Translation in H4 Neuroglioblastoma Cells. [Related pubchem assays: 1829 (Project Summary), 1814 (Primary HTS)]; assay type: functional; settings: Homo sapiens
# [21] = target: Sphingosine 1-phosphate receptor 1 (Homo sapiens, UniProt P21453); assay type: functional;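 further: Tango beta-arrestin reporter U2OS cells stimulated with S1P near its EC80; inhibitor potency meaning antagonism of receptor activation by the natural agonist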
# [22] = target: T3, Heat shock factor protein 1; assay: decrease of HSF1-responsive luciferase luminescence – cell-based, NIH3T3, dose retest, confirmation (AID 2382); assay type: functional;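 further: NIH3T3 fibroblasts with HSF1-driven luciferase reporter stressed by proteasome inhibitor MG132; luminescence from HSF1-driven luciferase expression after 8 hours of MG132 stress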
# BJ = assay: growth inhibition of engineered Ras-driven BJ cells – cell-based, alamar blue fluorescence, cherrypicked samples, dose response (AID 2631); assay type: functional; settings: Homo sapiens;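 further: confirmatory dose-response assay in RAS-dependent BJ fibroblasts engineered with TERT, LT and ST, with cytotoxicity read by fluorescence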
# [23] = target: Sphingosine 1-phosphate receptor 4 (Homo sapiens, UniProt O95977); assay: Fluorescence dose response cell-based high throughput screening assay for antagonists of the Sphingosine 1-Phosphate Receptor 4 (S1P4). [Related pubchem assays: 1524 (Confirmation in triplicates.), 1510 (Primary screen.)]; assay type: functional
# Streptococcus = assay: GAS UMAA2166 growth inhibition – luminescence, BacTiterGlo, counter-screen for streptokinase expression inhibitor project, dose response (AID 1915); assay type: functional, organism-based;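 further: potency for reduction of bacterial viability or growth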
# [24] = tested on: Streptococcus sp. 'group A'; assay: Streptococcus pyogenes SK(-)GAS viability under kanamycin – luminescence, BacTiterGlo, confirmation, counter-screen for streptokinase expression inhibitor project, dose response (AID 1900); assay type: functional, organism-based
# Streptokinase A = target: T4, Streptokinase A (Streptococcus pyogenes serotype M1, UniProt P10520); assay: viability-normalized secreted streptokinase activity reduction – plasminogen activation absorbance, OD405, dose response (AID 1914); assay type: functional, Streptococcus pyogenes M1 GAS;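 further: secreted streptokinase activity via plasminogen activation per viability signal from cell pellet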
# T4 sequence (P10520 whole entry): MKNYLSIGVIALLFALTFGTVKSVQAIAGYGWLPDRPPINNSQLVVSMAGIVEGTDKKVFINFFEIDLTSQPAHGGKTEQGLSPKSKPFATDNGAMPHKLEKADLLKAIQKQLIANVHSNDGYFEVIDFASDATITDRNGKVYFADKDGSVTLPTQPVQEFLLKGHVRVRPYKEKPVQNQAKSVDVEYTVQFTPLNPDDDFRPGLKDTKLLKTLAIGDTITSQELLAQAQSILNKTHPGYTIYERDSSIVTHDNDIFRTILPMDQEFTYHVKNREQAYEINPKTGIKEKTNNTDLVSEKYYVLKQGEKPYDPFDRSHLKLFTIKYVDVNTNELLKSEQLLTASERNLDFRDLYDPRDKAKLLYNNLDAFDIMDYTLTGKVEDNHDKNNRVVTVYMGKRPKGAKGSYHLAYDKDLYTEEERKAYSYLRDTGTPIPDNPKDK
structure (smiles),measurement,setting,value
COc1ccc(/C=C/C(=O)c2ccc(O)cc2)cc1COc1ccc(F)cc1,CC50,Vero [1],33.9 µM (active)
same,AC50,[2],> 380 µM (inactive)
same,EC50,Protein RecA,> 380 µM (inactive)
same,EC50,[3],24.3 µM (active)
same,AC50,[4],3.91 µM (active)
COc1ccc(NC(=O)/C(C#N)=C\c2ccc(N3CCOCC3)o2)cc1,EC50,[5],1.68 µM (active)
same,EC50,[6],> 100 µM (active)
same,EC50,"Troponin, cardiac muscle",1.58 µM (active)
same,EC50,[7],> 160 µM (inactive)
CN=c1ccc(Br)cc(C(=O)/C=C/c2ccc(Cl)cc2Cl)c1O,IC50,NS3,8.09 µM (active)
same,CC50,Vero [8],24.7 µM (active)
same,IC50,[9],5.26 µM (active)
same,CC50,Vero [10],14.4 µM (active)
same,IC50,Vero [11],12.2 µM (active)
Cn1c(=O)oc2cc(S(=O)(=O)N3CCCC(C(=O)NC4CCCc5ccccc54)C3)ccc21 (stereo not drawn),CC50,Vero [1],2.41 µM (active)
same,EC50,[12],13.8 µM (active)
same,EC50,[13],12.9 µM (active)
same,EC50,[14],22.5 µM (active)
O=C(Nc1nc2ccccc2[nH]1)C12CC3CC(CC(C3)C1)C2,EC50,[15],< 0.1 µM (active)
same,EC50,[16],0.19 µM (active)
same,EC50,[17],0.358 µM (active)
same,CC50,[18],> 40 µM (active)
same,EC50,[19],0.299 µM (active)
same,EC50,[20],0.341 µM (active)
same,EC50,H4,0.101 µM (active)
O=C(CCl)Nc1cc(SCC(O)CO)cc([N+](=O)[O-])c1 (stereo not drawn),IC50,[21],4.46 µM (active)
same,EC50,[22],2.13 µM (active)
same,EC50,BJ,1.05 µM (active)
same,IC50,[23],1.31 µM (active)
Oc1c(Cl)cc(Cl)cc1/C=N/NC(=S)NC1CC2C=CC1C2 (stereo not drawn),IC50,NS3,8.21 µM (active)
same,EC50,Streptococcus,1.3 µM (active)
same,EC50,[24],0.333 µM (active)
same,EC50,Streptokinase A,0.539 µM (active)
